Values of other authors in publication PMC5960647 (Experimental & Molecular Medicine, 2018).
Where no end group is shown, it is not given here.

Experiments:
CCKBR [1] = conditions: cited from earlier work
CCKBR [2] = conditions: dorsal root ganglion neurons, CCKBR in the same neuron; cited from earlier work

| Compound | effect on opioid-induced analgesia (CCKBR [1]) | effect on pain threshold of administration per se (CCKBR [1]) | effect on electroacupuncture analgesia (CCKBR [1]; caudate nucleus, through CCKBR) | effect on opioid analgesia (CCKBR [1]; shown with L-365,260) | effect on MOR-mediated inhibition of voltage-gated calcium current (CCKBR [2]) |
| --- | --- | --- | --- | --- | --- |
| Cc1cccc(NC(=O)N[C@@H]2N=C(c3ccccc3)c3ccccc3N(C)C2=O)c1 [L-365,260] | potentiated opioid-induced analgesia | did not affect pain threshold |  |  |  |
| cholecystokinin octapeptide (DYMGWMDF; ends and bridges not checked; UniProt P06307 96-103, looked up) [CCK-8] |  |  | antagonism to electroacupuncture analgesia | inhibited opioid analgesia through CCKBR | antagonized |
